Laboratory results from US4368267A, “Epoxidation of lower α-olefins” (priority 1980, dated 1983).
Where “and” joins values, the source holds several entries; their conditions need not be identical. Equal values may be shown once.

Assays:
[1] = tested on: Methylosinus trichosporium OB3b (NRRL B-11,196); test: Methane hydroxylation and alkene epoxidation by washed cell suspensions; assay type: cell-based; settings: for Propylene Oxide Formed: 3.6 mg cells; for Ability to hydroxylate methane or epoxidize C2 -C4 alkenes: methanol-grown washed cells
Procedure: (§1) The pH of the nutrient medium was adjusted to 7.0 by the addition of acid or base and 50 ml aliquots of the nutrient medium was charged into a plurality of 300 ml shake flasks. […] The isolates had been maintained on agar plates under an atmosphere of methane and air having a 1:1 v/v gas ratio which had been transferred every two weeks. The gaseous phase of the inoculated flasks was then replaced with a gas mixture comprised of methane and air having a ratio of 1:1 on a v/v basis. The inoculated flasks were sealed air tight and were incubated on a rotary shaker of orbital radius 2.5 cm at 250 rpm and at 30° C. for two days until the turbidity in the medium had developed.
(§2) The cells were harvested by centrifugation at 10,000 ×g at 4° C. for 30 minutes. The cell pellet was washed twice with a 0.15 M phosphate buffer at a pH of 7.0 (containing 0.002 M MgCl2). The washed cells were then suspended in a 0.15 M phosphate buffer at pH 7.0.
[…] The gaseous phase of the vials was removed with vacuum and then was replaced with a gas mixture of alkene and oxygen at a 1:1 v/v ratio. It was then incubated at 30° C. on a rotary shaker at 300 rpm. Samples of product (3 μl) were withdrawn periodically with a microsyringe and the products were analyzed by gas chromatography (ionization flame detector column).

[2] = tested on: Methylobacter capsulatus Y (NRRL B-11,201); test: Methane hydroxylation and propylene epoxidation by washed cell suspensions; assay type: cell-based; settings: for Ability to hydroxylate methane or epoxidize C2 -C4 alkenes: methanol-grown washed cells
[3] = tested on: Methylosinus sporium 5 (NRRL B-11,197); test: Methane hydroxylation and alkene epoxidation by washed cell suspensions; assay type: cell-based; settings: methane-grown washed cells, 30° C.
Procedure: as §1, §2
A 0.5 ml aliquot of each washed cell suspension (2 mg cells) was put into 10 ml vials at 4° C. which were sealed with a rubber cap. […] It was then incubated at 30° C. on a rotary shaker at 300 rpm. Samples of product (3 μl) were withdrawn periodically with a microsyringe and the products were analyzed by gas chromatography (ionization flame detector column).

[4] = biological target: T1, cell-free fractions of Methylococcus capsulatus (CRL M1, NRRL B-11,219) (Methylococcus capsulatus, UniProt G1UBD1+Q603F1+Q607G3); test: Epoxidation and hydroxylation activities in cell-free fractions; assay type: biochemical
T1 sequence (G1UBD1 33-414): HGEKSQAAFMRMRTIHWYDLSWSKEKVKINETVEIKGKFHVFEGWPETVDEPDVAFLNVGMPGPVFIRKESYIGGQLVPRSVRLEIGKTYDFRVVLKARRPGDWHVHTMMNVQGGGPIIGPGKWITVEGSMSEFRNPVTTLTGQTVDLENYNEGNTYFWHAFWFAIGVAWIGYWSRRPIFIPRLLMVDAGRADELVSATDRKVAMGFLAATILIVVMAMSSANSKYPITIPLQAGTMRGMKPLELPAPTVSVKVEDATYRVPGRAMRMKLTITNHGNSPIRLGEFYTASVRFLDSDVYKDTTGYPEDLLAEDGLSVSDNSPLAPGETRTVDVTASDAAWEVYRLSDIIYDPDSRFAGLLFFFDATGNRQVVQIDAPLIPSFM
T1 sequence (Q607G3 1-247): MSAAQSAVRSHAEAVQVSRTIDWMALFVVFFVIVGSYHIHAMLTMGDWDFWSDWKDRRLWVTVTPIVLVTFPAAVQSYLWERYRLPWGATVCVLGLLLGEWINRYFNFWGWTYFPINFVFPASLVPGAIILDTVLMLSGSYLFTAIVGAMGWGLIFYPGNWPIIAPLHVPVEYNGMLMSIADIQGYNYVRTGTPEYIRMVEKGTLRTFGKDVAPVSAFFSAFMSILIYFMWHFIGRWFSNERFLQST
T1 sequence (Q603F1 1-260): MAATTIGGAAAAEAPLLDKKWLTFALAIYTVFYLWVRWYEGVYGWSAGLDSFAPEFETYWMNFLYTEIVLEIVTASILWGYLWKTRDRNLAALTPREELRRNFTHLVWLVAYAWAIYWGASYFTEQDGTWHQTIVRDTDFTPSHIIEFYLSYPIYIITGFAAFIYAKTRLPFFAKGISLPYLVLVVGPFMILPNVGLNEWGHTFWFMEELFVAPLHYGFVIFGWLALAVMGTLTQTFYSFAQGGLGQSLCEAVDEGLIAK
Procedure: Cells of methane-grown Methylococcus capsulatus (CRL M1, NRRL B-11,219) were obtained by the method of Example 1. […] However, when the cells were disrupted by passing twice through a French pressure cell (1000 Kg. pressure), both activities were found in the crude extract after 10,000×g. centrifugation. All of the activity in the crude extract was collected as a particulate fraction by further centrifugation of the crude extract at 40,000×g. for 90 min. at 4° C.

[5] = tested on: Methylococcus capsulatus (CRL M1, NRRL B-11,219); test: Oxidation/epoxidation by washed cell suspensions; assay type: cell-based
[6] = tested on: Methylobacterium organophilum XX (ATCC 27,886); test: Methane hydroxylation and propylene epoxidation by washed cell suspensions; assay type: cell-based; settings: methane-grown washed cells, 30° C.
Procedure: The pH of the nutrient medium was adjusted to 7.0 by the addition of acid or base and 50 ml aliquots of the nutrient medium was charged into a plurality of 300 ml shake flasks. The shake flasks were inoculated with an inoculating loop of cells from an agar plate containing homogeneous colonies of the microorganisms on the plate (the purity of the isolates were confirmed by microscopic examination). The isolates had been maintained on agar plates under an atmosphere of methane and air having a 1:1 v/v gas ratio which had been transferred every two weeks. The gaseous phase of the inoculated flasks was then replaced with a gas mixture comprised of methane and air having a ratio of 1:1 on a v/v basis. The inoculated flasks were sealed air tight and were incubated on a rotary shaker of orbital radius 2.5 cm at 250 rpm and at 30° C. for two days until the turbidity in the medium had developed.
The cells were harvested by centrifugation at 10,000 ×g at 4° C. for 30 minutes. The cell pellet was washed twice with a 0.15 M phosphate buffer at a pH of 7.0 (containing 0.002 M MgCl2). […]
A 0.5 ml aliquot of each washed cell suspension (2 mg cells) was put into 10 ml vials at 4° C. which were sealed with a rubber cap. […] Samples of product (3 μl) were withdrawn periodically with a microsyringe and the products were analyzed by gas chromatography (ionization flame detector column).

[7] = tested on: Methylomonas albus BG8 (NRRL B-11,200); test: Methane hydroxylation and alkene epoxidation by washed cell suspensions; assay type: cell-based; settings: methane-grown washed cells, 30° C.
Procedure: as §1, §2
A 0.5 ml aliquot of each washed cell suspension (2 mg cells) was put into 10 ml vials at 4° C. which were sealed with a rubber cap. The gaseous phase of the vials was removed with vacuum and then was replaced with a gas mixture of alkene and oxygen at a 1:1 v/v ratio. It was then incubated at 30° C. on a rotary shaker at 300 rpm. Samples of product (3 μl) were withdrawn periodically with a microsyringe and the products were analyzed by gas chromatography (ionization flame detector column).

[8] = Propylene + Methane + O2 (25:25:50 v/v), 15 minutes
[9] = methane-grown washed cells, 30° C.
[10] = Particulate fraction (10,000 g.-40,000 g.), 1 mg. protein
[11] = Supernatant fraction of 40,000 g., 2.5 mg. protein

C [Methane]
Propylene Oxide Formed [1, 8]: 0.8 µmol | % Inhibition of propylene epoxidation [1, 8]: 50% | Conversion rate, methane hydroxylation (methane to methanol) [1, 9]: 1.5 μmole/hr/mg protein | Ability to hydroxylate methane or epoxidize C2 -C4 alkenes [1]: did not possess the ability | Conversion rate, methane hydroxylation [2, 9]: 1.2 μmole/hr/mg protein | Ability to hydroxylate methane or epoxidize C2 -C4 alkenes [2]: did not possess the ability | Conversion rate, methane hydroxylation (methane to methanol) [3]: 1.1 μmole/hr/mg protein and 1.8 μmole/hr/mg protein | Oxidation Rate, Hydroxylation of Methane [4, 10]: 500 μmoles/30 min/assay | Oxidation Rate, Hydroxylation of Methane [4, 11]: 0 μmoles/30 min/assay | Epoxidation Rate, Propylene oxide ([5]; Propylene + 5% methane, 1 Hr): 2.0 μmoles/0.5 ml | Epoxidation Rate, Propylene oxide ([5]; Propylene + 5% methane, 2 Hr): 4.0 μmoles/0.5 ml | Epoxidation Rate, Propylene oxide ([5]; Propylene + 5% methane, 3 Hr): 4.1 μmoles/0.5 ml | Epoxidation Rate, Propylene oxide ([5]; Propylene + 7% methane, 1 Hr): 2.3 μmoles/0.5 ml | Epoxidation Rate, Propylene oxide ([5]; Propylene + 7% methane, 2 Hr): 4.7 μmoles/0.5 ml | Epoxidation Rate, Propylene oxide ([5]; Propylene + 7% methane, 3 Hr): 4.8 μmoles/0.5 ml | Epoxidation Rate, Propylene oxide ([5]; Propylene + 15% methane, 1 Hr): 3.5 μmoles/0.5 ml | Epoxidation Rate, Propylene oxide ([5]; Propylene + 15% methane, 2 Hr): 6.4 μmoles/0.5 ml | Epoxidation Rate, Propylene oxide ([5]; Propylene + 15% methane, 3 Hr): 6.5 μmoles/0.5 ml | Epoxidation Rate, Propylene oxide ([5]; Propylene + 20% methane, 1 Hr): 3.8 μmoles/0.5 ml | Epoxidation Rate, Propylene oxide ([5]; Propylene + 20% methane, 2 Hr): 7.1 μmoles/0.5 ml | Epoxidation Rate, Propylene oxide ([5]; Propylene + 20% methane, 3 Hr): 7.2 μmoles/0.5 ml | Inhibition of epoxidation of propylene to propylene oxide ([5]; cell suspension, in the presence of methane): 50% | Conversion rate, methane hydroxylation [6]: 1.0 μmole/hr/mg protein | Conversion rate, methane hydroxylation [7]: 1.8 μmole/hr/mg protein

C=CC [Propylene]
Propylene Oxide Formed ([1]; Propylene + Helium + O2 (25:25:50 v/v), 15 minutes): 1.6 µmol | Conversion rate, propylene to propylene oxide [1, 9]: 3.6 μmole/hr/mg protein | Ability to hydroxylate methane or epoxidize C2 -C4 alkenes [1]: did not possess the ability | Ability to hydroxylate methane or epoxidize C2 -C4 alkenes [2]: did not possess the ability | Conversion rate, propylene to propylene oxide [3]: 2.0 μmole/hr/mg protein | Oxidation Rate, Epoxidation of Propylene [4, 10]: 750 μmoles/30 min/assay | Oxidation Rate, Epoxidation of Propylene [4, 11]: 0 μmoles/30 min/assay | Epoxidation Rate, Propylene oxide ([5]; propylene alone (control), 1 Hr, 50% O2): 2.0 μmoles/0.5 ml | Epoxidation Rate, Propylene oxide ([5]; propylene alone (control), 2 Hr): 3.8 μmoles/0.5 ml | Conversion rate, propylene to propylene oxide [6]: 1.8 μmole/hr/mg protein | Conversion rate, propylene to propylene oxide [7]: 1.4 μmole/hr/mg protein
